# Test results: patent US9546162B2, “Compounds and methods for skin repair” (Allergan, Inc., priority 2013, dated 2017)
# Read-outs that look alike come from different tables or passages of the source.
# Assays:
# EP2 [1] = biological target: T1, EP2 (Homo sapiens (Human), UniProt P43116); assay: EP2 competition binding (Ki), [3H]PGE2; conditions: EP2, HEK 293 cells
# Experimental: Competition binding experiments were performed in a medium containing Hank's balanced salt solution, Hepes 20 mM, pH 7.3, membranes (˜60 μg protein) or 2×10^5 cells from HEK 293 cells stably expressing human EP2 receptors, [^3H]PGE2 (10 nM) and various concentrations of test compounds in a total volume of 300 μl. Reaction mixtures were incubated at 23° C. for 60 min, and were filtered over Whatman GF/B filters under vacuum. Filters were washed three times with 5 ml ice-cold buffer containing 50 mM Tris/HCl (pH 7.3). Non-specific binding was estimated in the presence of excess unlabeled PGE2 (10 μM). Binding data fitted to the binding model for a single class of binding sites, using nonlinear regression analysis.
# (§1) HEK-293 cells stably expressing the human or feline FP receptor, or EP1, EP2, or EP4 receptors were washed with TME buffer, scraped from the bottom of the flasks, and homogenized for 30 sec using a Brinkman PT 10/35 polytron. TME buffer was added to achieve a final 40 ml volume in the centrifuge tubes (the composition of TME is 100 mM TRIS base, 20 mM MgCl2, […]; 10N HCl is added to achieve a pH of 7.4).
# (§2) The cell homogenate was centrifuged at 19000 r.p.m. for 20 min at 4° C. using a Beckman Ti-60 rotor. The resultant pellet was resuspended in TME buffer to give a final 1 mg/ml protein concentration, as determined by Biorad assay. Radioligand binding competition assays vs. [^3H-]17-phenyl PGF2a (5 nM) were performed in a 100 μl volume for 60 min. Binding reactions were started by adding plasma membrane fraction. The reaction was terminated by the addition of 4 ml ice-cold TRIS-HCl buffer and rapid filtration through glass fiber GF/B filters using a Brandel cell harvester. The filters were washed 3 times with ice-cold buffer and oven dried for one hour.
# (§3) [^3H—] PGE2 (specific activity 180 Ci mmol) was used as the radioligand for EP receptors. [^3H] 17-phenyl PGF2a was employed for FP receptor binding studies. Binding studies employing EP1, EP2, EP4 and FP receptors were performed in duplicate in at least three separate experiments. A 200 μl assay volume was used. Incubations were for 60 min at 25° C. and were terminated by the addition of 4 ml of ice-cold 50 mM TRIS-HCl, followed by rapid filtration through Whatman GF/B filters and three additional 4 ml washes in a cell harvester (Brandel). Competition studies were performed using a final concentration of 5 nM [^3H]-PGE2, or 5 nM [^3H] 17-phenyl PGF2a and non-specific binding determined with 10^−5M of unlabeled PGE2, or 17-phenyl PGF2a, according to receptor subtype studied.
# EP4 [2] = biological target: T2, EP4 (Homo sapiens (Human), UniProt P35408); assay: EP4 cAMP EC50; format: cell-based
# T2 sequence (P35408 whole entry): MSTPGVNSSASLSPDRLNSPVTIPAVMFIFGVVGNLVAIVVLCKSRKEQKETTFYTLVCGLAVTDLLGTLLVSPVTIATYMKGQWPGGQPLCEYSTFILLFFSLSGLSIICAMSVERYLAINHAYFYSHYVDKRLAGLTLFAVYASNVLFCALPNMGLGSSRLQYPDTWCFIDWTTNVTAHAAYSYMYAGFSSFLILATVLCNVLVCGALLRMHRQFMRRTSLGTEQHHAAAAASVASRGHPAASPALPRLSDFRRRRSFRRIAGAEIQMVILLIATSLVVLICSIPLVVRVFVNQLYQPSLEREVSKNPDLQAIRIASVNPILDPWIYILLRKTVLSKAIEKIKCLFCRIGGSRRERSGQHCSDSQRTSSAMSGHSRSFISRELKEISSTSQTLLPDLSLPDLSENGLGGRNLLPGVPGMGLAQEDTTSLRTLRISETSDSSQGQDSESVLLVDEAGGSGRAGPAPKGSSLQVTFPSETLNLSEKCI
# EP4 [3] = biological target: T2, EP4; assay: EP4 radioligand binding (Ki), [3H]PGE2; conditions: EP4, HEK-293 membranes
# Experimental: as §1, §2, §3
# EP2 [4] = biological target: T1, EP2; assay: EP2 cAMP EC50; format: cell-based
# T1 sequence (P43116 whole entry): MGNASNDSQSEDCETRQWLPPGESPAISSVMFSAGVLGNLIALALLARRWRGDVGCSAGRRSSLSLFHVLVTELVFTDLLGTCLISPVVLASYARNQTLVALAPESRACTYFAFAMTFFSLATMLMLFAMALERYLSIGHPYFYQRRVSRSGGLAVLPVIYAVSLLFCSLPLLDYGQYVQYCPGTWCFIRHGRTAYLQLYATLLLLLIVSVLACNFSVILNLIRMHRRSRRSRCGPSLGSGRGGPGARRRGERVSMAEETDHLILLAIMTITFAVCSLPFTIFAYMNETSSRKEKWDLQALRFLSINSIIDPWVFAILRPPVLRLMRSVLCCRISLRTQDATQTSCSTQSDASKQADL
smiles,measurement,setting,value
COc1cc(CC2CCc3cccc(CCc4ccc(C(=O)O)cc4)c32)cc(OC)c1 (stereo not shown) [Entry 1],Ki,EP2 [1],0.002 µM
same,EC50,EP4 [2],0.0072 µM
same,EP4 Ki,EP4 [3]; read-out: EP4 Ki EC50,0.003 µM
COc1cc(/C=C2\CCc3cccc(CCc4ccc(C(=O)O)cc4)c32)cc(OC)c1 [Entry 2],EC50,EP2 [4],0.028 µM
same,Ki,EP2 [1],0.095 µM
same,EC50,EP4 [2],0.007 µM
same,EP4 Ki,EP4 [3]; read-out: EP4 Ki EC50,0.042 µM
COc1cc(CC2=CCCc3cccc(CCc4ccc(C(=O)O)cc4)c32)cc(OC)c1 [Entry 3],EC50,EP2 [4],0.13 µM
same,Ki,EP2 [1],0.116 µM
same,EC50,EP4 [2],0.043 µM
same,EP4 Ki,EP4 [3]; read-out: EP4 Ki EC50,0.09 µM
COc1ccc(OC)c(CC2=CCc3cccc(CCc4ccc(C(=O)O)cc4)c32)c1 [Entry 4],Ki,EP2 [1],0.061 µM
same,EC50,EP4 [2],0.071 µM
same,EP4 Ki,EP4 [3]; read-out: EP4 Ki EC50,0.052 µM
COc1cccc(CC2=CCc3cccc(CCc4ccc(C(=O)O)cc4)c32)c1OC [Entry 6],Ki,EP2 [1],0.053 µM
same,EC50,EP4 [2],0.562 µM
same,EP4 Ki,EP4 [3]; read-out: EP4 Ki EC50,0.251 µM
O=C(O)c1ccc(CCc2cccc3c2N(Cc2ccc4ccccc4c2)CC3)cc1 [Entry 6],EP4 Ki,EP4 [3]; read-out: EP4 Ki EC50,0.174 µM
COc1ccc(CC2=CCc3cccc(CCc4ccc(C(=O)O)cc4)c32)cc1OC [Entry 7],EC50,EP2 [4],0.161 µM
same,Ki,EP2 [1],0.02 µM
same,EC50,EP4 [2],0.033 µM
same,EP4 Ki,EP4 [3]; read-out: EP4 Ki EC50,0.034 µM
O=C(O)c1ccc(CCc2cccc3c2N(Cc2cc(OCc4ccccc4)cc(OCc4ccccc4)c2)CC3)cc1 [Entry 7],EP4 Ki,EP4 [3]; read-out: EP4 Ki EC50,5.85 µM
COc1ccccc1CC1=CCc2cccc(CCc3ccc(C(=O)O)cc3)c21 [Entry 8],EC50,EP2 [4],0.057 µM
same,Ki,EP2 [1],0.067 µM
same,EC50,EP4 [2],0.107 µM
same,EP4 Ki,EP4 [3]; read-out: EP4 Ki EC50,0.071 µM
O=C(O)c1ccc(CCc2cccc3c2N(Cc2ccc4c(c2)OCO4)CC3)cc1 [Entry 8],EP4 Ki,EP4 [3]; read-out: EP4 Ki EC50,0.453 µM
COc1cc(CN2CCCc3cccc(CCc4ccc(C(=O)O)cc4)c32)cc(OC)c1 [Entry 9],EP4 Ki,EP4 [3]; read-out: EP4 Ki EC50,0.453 µM
COc1ccc(CC2=CCc3cccc(CCc4ccc(C(=O)O)cc4)c32)cc1 [Entry 9],EC50,EP2 [4],0.114 µM
same,Ki,EP2 [1],0.027 µM
same,EC50,EP4 [2],0.093 µM
same,EP4 Ki,EP4 [3]; read-out: EP4 Ki EC50,0.195 µM
COc1cccc(CCN2Cc3cccc(CCc4ccc(C(=O)O)cc4)c3C2)c1 [Entry 10],EP4 cAMP EC50,EP4 [2],> 10 µM
same,EP4 Ki,EP4 [3],> 10 µM
O=C(O)c1ccc(CCc2cccc3c2C(Cc2cc(Cl)cc(Cl)c2)=CC3)cc1 [Entry 10],EC50,EP2 [4],0.002 µM
same,Ki,EP2 [1],0.018 µM
same,EC50,EP4 [2],0.023 µM
same,EP4 Ki,EP4 [3]; read-out: EP4 Ki EC50,0.056 µM
COc1cccc(CN2Cc3cccc(CCc4ccc(C(=O)O)cc4)c3C2)c1 [Entry 11],EP4 cAMP EC50,EP4 [2],> 10 µM
Cc1cc(C)cc(CC2=CCc3cccc(CCc4ccc(C(=O)O)cc4)c32)c1 [Entry 11],EC50,EP2 [4],0.013 µM
same,Ki,EP2 [1],0.006 µM
same,EC50,EP4 [2],0.22 µM
same,EP4 Ki,EP4 [3]; read-out: EP4 Ki EC50,0.24 µM
COc1cc(CC2=CCc3c(F)ccc(CCc4ccc(C(=O)O)cc4)c32)cc(OC)c1 [Entry 12],EC50,EP2 [4],0.025 µM
same,Ki,EP2 [1],0.083 µM
same,EC50,EP4 [2],0.041 µM
same,EP4 Ki,EP4 [3]; read-out: EP4 Ki EC50,0.052 µM
COc1cc(CC2CCc3cccc(OCc4ccc(C(=O)O)cc4)c32)cc(OC)c1 (stereo not shown) [Entry 13],Ki,EP2 [1],0.469 µM
same,EC50,EP4 [2],0.016 µM
same,EP4 Ki,EP4 [3]; read-out: EP4 Ki EC50,0.154 µM
COc1cc(CN2CCc3cccc(CCc4ccc(C(=O)O)s4)c32)cc(OC)c1 [Entry 13],Ki,EP2 [1],0.047 µM
same,EP4 Ki,EP4 [3]; read-out: EP4 Ki EC50,0.161 µM
COc1cc(/C=C2\CCc3cccc(OCc4ccc(C(=O)O)cc4)c32)cc(OC)c1 [Entry 14],EP2 Ki,EP2 [1],> 10 µM
same,EP4 cAMP EC50,EP4 [2],> 10 µM
same,EP4 Ki,EP4 [3]; read-out: EP4 Ki EC50,1.49 µM
COc1cc(CC2=CCc3cccc(CCc4ccc(C(=O)O)cc4)c32)cc(OC)c1 [Entry 15],EC50,EP2 [4],0.011 µM
same,Ki,EP2 [1],0.003 µM
same,EC50,EP4 [2],0.001 µM
same,EP4 Ki,EP4 [3]; read-out: EP4 Ki EC50,0.0008 µM
COc1cccc(Cn2ccc3cccc(CCc4ccc(C(=O)O)cc4)c32)c1 [Entry 15],EC50,EP4 [2],3.13 µM
COc1cc(CC2=CCc3ccc(OC)c(CCc4ccc(C(=O)O)cc4)c32)cc(OC)c1 [Entry 16],Ki,EP2 [1],1.7 µM
same,EP4 Ki,EP4 [3]; read-out: EP4 Ki EC50,0.469 µM
COc1cccc(CC(=O)N2CCc3cccc(CCc4ccc(C(=O)O)cc4)c32)c1 [Entry 17],EP2 Ki,EP2 [1],> 10 µM
same,EP4 cAMP EC50,EP4 [2],> 10 µM
O=C(O)c1ccc(CCc2cccc3c2C(Cc2cc(C(F)(F)F)cc(C(F)(F)F)c2)=CC3)cc1 [Entry 17],Ki,EP2 [1],0.008 µM
same,EC50,EP4 [2],0.296 µM
same,EP4 Ki,EP4 [3]; read-out: EP4 Ki EC50,0.736 µM
O=C(O)c1ccc(CCc2cccc3c2C(Cc2cc(F)cc(F)c2)=CC3)cc1 [Entry 18],EC50,EP2 [4],0.006 µM
same,Ki,EP2 [1],0.027 µM
same,EC50,EP4 [2],0.057 µM
same,EP4 Ki,EP4 [3]; read-out: EP4 Ki EC50,0.134 µM
COc1cc(CC2=CCc3cc(F)cc(CCc4ccc(C(=O)O)cc4)c32)cc(OC)c1 [Entry 19],EC50,EP2 [4],0.036 µM
same,Ki,EP2 [1],0.018 µM
same,EC50,EP4 [2],0.002 µM
same,EP4 Ki,EP4 [3]; read-out: EP4 Ki EC50,0.0004 µM
COc1cc(OC)cc(S(=O)(=O)N2CCc3cccc(CCc4ccc(C(=O)O)cc4)c32)c1 [Entry 19],Ki,EP2 [1],0.776 µM
same,EP4 cAMP EC50,EP4 [2],> 10 µM
same,EP4 Ki,EP4 [3]; read-out: EP4 Ki EC50,8.23 µM
COc1cc(CC2=CCc3cccc(-c4cccc(/C=C/C(=O)O)c4)c32)cc(OC)c1 [Entry 20],EP2 Ki,EP2 [1],> 10 µM
same,EP4 Ki,EP4 [3]; read-out: EP4 Ki EC50,1.23 µM
COc1cccc(S(=O)(=O)N2CCc3cccc(CCc4ccc(C(=O)O)cc4)c32)c1 [Entry 20],EP4 cAMP EC50,EP4 [2],> 10 µM
same,EP4 Ki,EP4 [3],> 10 µM
COc1cc(CC2=CCc3cccc(/C=C/c4ccc(C(=O)O)cc4)c32)cc(OC)c1 [Entry 21],Ki,EP2 [1],4.77 µM
same,EP4 cAMP EC50,EP4 [2],> 10 µM
same,EP4 Ki,EP4 [3]; read-out: EP4 Ki EC50,1.2 µM
COc1cc(CC2=CCc3cccc(-c4cccc(OCC(=O)O)c4)c32)cc(OC)c1 [Entry 22],EP2 Ki,EP2 [1],> 10 µM
same,EP4 Ki,EP4 [3]; read-out: EP4 Ki EC50,1.17 µM
COc1cc(CC2=CCc3cccc(-c4ccc(OCC(=O)O)cc4)c32)cc(OC)c1 [Entry 23],EP2 Ki,EP2 [1],> 10 µM
same,EP4 cAMP EC50,EP4 [2],> 10 µM
same,EP4 Ki,EP4 [3]; read-out: EP4 Ki EC50,4.47 µM
COc1cc(CC2=CCc3cccc(C#Cc4ccc(C(=O)O)cc4)c32)cc(OC)c1 [Entry 24],EP2 Ki,EP2 [1],> 10 µM
same,EP4 cAMP EC50,EP4 [2],> 10 µM
same,EP4 Ki,EP4 [3]; read-out: EP4 Ki EC50,3.6 µM
